Test results published in publication PMC8116058, “De novo macrocyclic peptides dissect energy coupling of a heterodimeric ABC transporter by multimode allosteric inhibition” (eLife, 2021).
Positions of bridges follow the written chain, without caps; N, C: chain ends. Non-standard residues stand in square brackets, D forms with d. Residues, ends and D or L forms follow the SMILES beside them. *: point of attachment. 5FAM = O=C1OC2(c3ccc(O)cc3Oc3cc(O)ccc32)c2ccc(C(=O)*)cc21; βAla = NCCC(=O)O

Columns and labels:
[1] = system: wild-type TmrAB in liposomes; assay: Single-liposome flow cytometry transport assay; type: biochemical, Thermus thermophilus; conditions: for Peptide transport in two successive IF-to-OF cycles: 5 min 45°C / 60 min 4°C, repeated; for Transported C4^ATTO655, Peptides/liposome: TmrAB 0.4 µM, ATP 3 mM, ATP without CP 84.57, ADP 3.52; for Transported C4^ATTO655, Peptides/liposome / Peptides/liposome, time course / Mean fluorescence intensity * 10^3, time course: C4^ATTO655 1 µM; for Peptides/liposome, two consecutive transport cycles: ADP background corrected; for Peptides/liposome, time course: corrected by ADP background
Description: To investigate whether an IF-to-OF transition and conformational arrest by CP13^F or CP14^F can still result in a productive substrate translocation, we followed peptide transport by wild-type TmrAB by single liposome-based flow cytometry (Figure 6A). […] CPs block multiple-turnover transport monitored by quantitative flow cytometry. (A) Single turnover by IF-to-OF switch monitored by single-liposome flow cytometry. […] Transport reactions were stopped by the addition of EDTA (10 mM). 100,000 proteoliposomes were analyzed by flow cytometry monitoring fluorescein and ATTO655 intensities. […] (C, D) Slowdown of multiple-turnover substrate transport. […] Transported peptides per liposomes were evaluated and corrected by ADP background levels as described in (B). Transport kinetics were fitted monoexponentially. […] (E) Two consecutive transport cycles. […] Transported peptides per liposome were evaluated as described in (B) and corrected by background levels in the presence of ADP. […] Figure 6-source data 1. Source data for Figure 6. Figure 6-figure supplement 1. Linear regression of quantitative flow cytometry analysis. (A) Gating strategy. Liposomes were selected according to side and forward scatter areas. Single liposomes were gated based on the height of forward scatter correlated to the area of forward scatter. […] Detergent was removed, and liposomes were extensively washed by centrifugation. […] Equal concentrations of fluorescein served as loading control (right). (C) Linear regression. […] Mean values ± SD (n = 3) are shown. Figure 6-figure supplement 1-source data 1. Source Data for Figure 6-figure supplement 1. [drawing 5] […] To confirm the conformational arrest of wild-type TmrAB by CP13^F and the slow turnover in the presence of CP14^F, we examined two successive cycles of conformational transitions by flow cytometry. […] Both steps were repeated to yield two consecutive cycles of conformational transitions. […] Taken together, the macrocyclic peptides CP13 and CP14 stabilize a pre-hydrolysis state, thus allowing a single-turnover translocation along the IF-to-OF switch. […] Transport reactions were stopped by adding EDTA (10 mM). […] For regression analysis, liposomes were loaded with increasing amounts of peptides to convert the fluorescence intensities into the number of peptides per liposome ([Stefan et al., 2020]). […] Equal amounts of carboxyfluorescein (Sigma-Aldrich) served as loading control. Detergent was removed by adding SM-2 Bio-beads (Bio-Rad) as detailed above. Liposomes were harvested for 30 min at 270,000 g and washed three times by centrifugation. Generally, 20,000-100,000 proteoliposomes were selected according to sideward and forward scatter areas. Single events were selected based on the height of forward scatter plotted against the area of forward scatter. […] Data represent mean ± SD from three experiments.

[2] = system: TmrAB in liposomes; assay: Filter-based transport assay, inhibition of C4F translocation; type: biochemical, Thermus thermophilus; conditions: C4F 3 µM, CP^F 1 µM, 15 min 45°C; for Transported C4F peptide: TmrAB 0.4 µM
Excerpt: In order to investigate the functional impact of CPs, we examined the effect of the CPs on ATP hydrolysis and substrate transport of TmrAB (Figure 3A). We reconstituted TmrAB in liposomes and first assayed the ATPase activity. […] We next set out to investigate peptide transport by TmrAB using a filter-based transport assay. To investigate whether CPs are recognized as substrates by TmrAB, we added fluorescein-labeled CP^Fs and examined ATP-dependent translocation. In contrast to the linear substrate peptide C4F, none of the CP^Fs were transported by TmrAB (Figure 3C). Next, we examined ATP-dependent transport of C4F peptides in the presence and absence of the different CPs.
Figure 3. CP^Fs are potent inhibitors of ATP turnover and substrate transport. (A) Experimental scheme of ATP hydrolysis and peptide transport by TmrAB. (B) CP^Fs inhibit ATP hydrolysis. TmrAB in liposomes (100 nM) was incubated with ATP (2 mM, traced with [γ^32P]-ATP), and MgCl2 (5 mM) in the presence and absence of CP^Fs (1 µM) for 10 min at 45°C. Autohydrolysis was determined in the absence of TmrAB, and background turnover was conducted in the presence of EDTA (10 mM). Release of [γ^32P] was quantified by thin layer chromatography. (C) CP^Fs are not transported by TmrAB. TmrAB (0.4 µM) reconstituted in liposomes was incubated with C4F peptide (3 µM) or CP^Fs (1 µM) in the presence of ATP/ADP (3 mM) and MgCl2 (5 mM) for 5 min at 45°C. Since CP^Fs were dissolved in maximal 0.5% (v/v) of DMSO, C4F plus 0.5% DMSO served as control. Proteoliposomes were washed on filter plates, and transported peptides were quantified at λex/em = 485/520 nm. (D) Inhibition of substrate translocation. TmrAB in liposomes (0.4 µM) were incubated with C4F peptide (3 µM), ATP/ADP (3 mM), and MgCl2 (5 mM) in the presence and absence of CP^Fs (1 µM) for 15 min at 45°C. Transported peptides were quantified as described in (C). In (B–C), mean values ± SD (n = 3) are shown. Figure 3—source data 1. Source data for Figure 3.
TmrAB in liposomes (0.4 µM) were incubated with ATP/ADP (3 mM), MgCl2 (5 mM), C4F peptide (3 µM), and CP^Fs (1 µM) for 15 min at 45°C. […] Proteoliposomes were solubilized by adding SDS (1% [v/v]) in transport buffer for 10 min at 20°C. Transported peptides were quantified at λex/em = 485/520 nm using a microplate reader (CLARIOstar, BMG LABTECH).

[3] = time 5 min (after first 5 min at 45°C)
[4] = time 65 min (after 60 min at 4°C)
[5] = time 70 min (after second 5 min at 45°C)
[6] = time 130 min (after second 60 min at 4°C)
[7] = ADP 3 mM (background), without CP 0.01

Structure (SMILES)	Peptide transport in two successive IF-to-OF cycles [1]	Transported C4^ATTO655, Peptides/liposome ([1]; CP^F 1 µM, 5 min 45°C) [Peptides/liposome]	Peptides/liposome, two consecutive transport cycles ([1]; time 0 min) [Peptides/liposome]	Peptides/liposome, two consecutive transport cycles [1, 3] [Peptides/liposome]	Peptides/liposome, two consecutive transport cycles [1, 4] [Peptides/liposome]	Peptides/liposome, two consecutive transport cycles [1, 5] [Peptides/liposome]	Peptides/liposome, two consecutive transport cycles [1, 6] [Peptides/liposome]	Transported C4F peptide [2, 7] [µmol·g/min]	Transported C4F peptide ([2]; ATP 3 mM, without CP 1.66) [µmol·g/min]	Effect on ATP-dependent C4F peptide translocation [2]	further results
CC(C)C[C@@H]1NC(=O)[C@H](Cc2ccccc2)NC(=O)CNC(=O)[C@H](CO)NC(=O)[C@H](Cc2ccccc2)NC(=O)[C@H](CC(=O)O)NC(=O)[C@@H]2CCCN2C(=O)[C@H]([C@@H](C)O)NC(=O)[C@@H](Cc2ccc(O)cc2)NC(=O)CSC[C@@H](C(=O)NCC(=O)N[C@@H](CO)C(=O)NCCC(=O)NCCC(=O)N[C@@H](CCCNC(=N)N)C(=O)N[C@@H](CCCCNC(=O)c2ccc3c(c2)C(=O)OC32c3ccc(O)cc3Oc3cc(O)ccc32)C(N)=O)NC(=O)[C@H](C)NC(=O)[C@H](CC(N)=O)NC(=O)[C@H](CCCNC(=N)N)NC(=O)[C@H](CC(C)C)NC(=O)[C@H](Cc2ccccc2)NC(=O)[C@H](C)NC1=O [CP12] ({CH2CO}-[dY]TPDFSGFLAFLRNACGS[βAla][βAla]RK(5FAM)-NH2; thioether N-16)	peptide translocation was completely abrogated	4.93	0.00	1.11	1.17	1.70	1.01	0.41	0.41	completely blocked peptide translocation	Effect on C4^ATTO655 peptide translocation ([1]; CP^F 1 µM, 5 min 45°C): completely prevented C4^ATTO655 peptide translocation
CC(C)[C@@H]1NC(=O)[C@H](Cc2ccccc2)NC(=O)[C@@H]2CCCN2C(=O)[C@H](CC(N)=O)NC(=O)[C@H](Cc2c[nH]c3ccccc23)NC(=O)[C@H](C(C)C)NC(=O)[C@H](Cc2ccc(O)cc2)NC(=O)[C@H](Cc2ccccc2)NC(=O)[C@@H](Cc2ccc(O)cc2)NC(=O)CSC[C@@H](C(=O)NCC(=O)N[C@@H](CO)C(=O)NCCC(=O)NCCC(=O)N[C@@H](CCCNC(=N)N)C(=O)N[C@@H](CCCCNC(=O)c2ccc3c(c2)C(=O)OC32c3ccc(O)cc3Oc3cc(O)ccc32)C(N)=O)NC(=O)[C@H](CCCCN)NC(=O)[C@H](Cc2ccccc2)NC1=O [CP14] ({CH2CO}-[dY]FYVWNPFVFKCGS[βAla][βAla]RK(5FAM)-NH2; thioether N-12; C-terminus assumed)	peptide transport was detected in both IF-to-OF switches	38.81	0.00	36.27	37.68	44.92	48.07	0.15	0.41	only caused a partial inhibition	Peptides/liposome, time course ([1]; 1 min at 45°C, CP^F 1 µM): 0.03 Peptides/liposome; Mean fluorescence intensity * 10^3, time course ([1]; 1 min at 45°C, CP^F 1 µM, without CP 2.29): 0.00 * 10^3; Peptides/liposome, time course ([1]; 3 min at 45°C, CP^F 1 µM): 6.21 Peptides/liposome; Mean fluorescence intensity * 10^3, time course ([1]; 3 min at 45°C, CP^F 1 µM, without CP 10.49): 0.43 * 10^3; Peptides/liposome, time course ([1]; 5 min at 45°C, CP^F 1 µM): 14.91 Peptides/liposome; Mean fluorescence intensity * 10^3, time course ([1]; 5 min at 45°C, CP^F 1 µM, without CP 18.11): 1.02 * 10^3; Peptides/liposome, time course ([1]; 10 min at 45°C, CP^F 1 µM): 24.30 Peptides/liposome; Mean fluorescence intensity * 10^3, time course ([1]; 10 min at 45°C, CP^F 1 µM, without CP 30.27): 1.67 * 10^3; Peptides/liposome, time course ([1]; 20 min at 45°C, CP^F 1 µM): 38.29 Peptides/liposome; Mean fluorescence intensity * 10^3, time course ([1]; 20 min at 45°C, CP^F 1 µM, without CP 40.72): 2.63 * 10^3; Peptides/liposome, time course ([1]; 40 min at 45°C, CP^F 1 µM): 48.57 Peptides/liposome; Mean fluorescence intensity * 10^3, time course ([1]; 40 min at 45°C, CP^F 1 µM, without CP 51.44): 3.34 * 10^3; C4^ATTO655 peptides per liposome transported along a single IF-to-OF switch ([1]; CP^F 1 µM, 5 min 45°C, ~30 transport-competent TmrAB per liposome): ~ 30 peptides per liposome; Peptide transport rate compared to control without CP^Fs ([1]; period of 40 min at 45°C): drastically reduced the peptide transport rate; Turnover of wild-type TmrAB over long-term incubation ([1]; period of 40 min at 45°C): slow turnover
